{
  "source": "patent US8026262B2",
  "about": "“Chemical compounds” (GlaxoSmithKline LLC, priority 2006, dated 2011)",
  "origin": "cited, not measured here",
  "key": {"[1]": {"tested_on": "ovariectomized (OVX) rats"}},
  "data": [
    {"compound": "estrogen", "values": [
      {"measurement": "biomechanical strength of femoral cortical bone", "setting": "[1]; 2 month period", "value": "did not"}
    ]},
    {"compound": "CN(C)[C@H]1C[C@@H](C(C)(C)CO)Nc2ccc([N+](=O)[O-])cc21", "note": "[Example S-40503]", "values": [
      {"measurement": "bone mineral density (BMD) of femur", "setting": "ORX rats; 4 weeks, as markedly as DHT", "value": "increased"},
      {"measurement": "levator ani muscle weight", "setting": "ORX rats; 4 weeks, as markedly as DHT", "value": "increased"},
      {"measurement": "prostate weight", "setting": "ORX rats; versus eugonadal rats, at any doses tested", "value": "not elevated"},
      {"measurement": "periosteal mineral apposition rate of the femur", "setting": "[1]", "value": "increase"},
      {"measurement": "BMD of femoral cortical bone", "setting": "[1]; 2 month period", "value": "significantly increased"},
      {"measurement": "biomechanical strength of femoral cortical bone", "setting": "[1]; 2 month period", "value": "significantly increased"}
    ]}
  ]
}
